# Biological target: T1, human 5-HT2A receptor (Homo sapiens, UniProt P28223)
# T1 construct: expressed in transfected cells; host or cells: COS7 cells, transient transfection, pCMV vector; crude membranes
# Experiment: [125I]DOI radioligand binding assay
# Conditions: 0.5 nM [125I]DOI, membranes of COS7 cells transfected with human 5-HT2A receptor
# Procedure: Crude membrane pellets were stored at −80° C. until used for radioligand binding assays.
# T1 sequence (P28223 whole entry): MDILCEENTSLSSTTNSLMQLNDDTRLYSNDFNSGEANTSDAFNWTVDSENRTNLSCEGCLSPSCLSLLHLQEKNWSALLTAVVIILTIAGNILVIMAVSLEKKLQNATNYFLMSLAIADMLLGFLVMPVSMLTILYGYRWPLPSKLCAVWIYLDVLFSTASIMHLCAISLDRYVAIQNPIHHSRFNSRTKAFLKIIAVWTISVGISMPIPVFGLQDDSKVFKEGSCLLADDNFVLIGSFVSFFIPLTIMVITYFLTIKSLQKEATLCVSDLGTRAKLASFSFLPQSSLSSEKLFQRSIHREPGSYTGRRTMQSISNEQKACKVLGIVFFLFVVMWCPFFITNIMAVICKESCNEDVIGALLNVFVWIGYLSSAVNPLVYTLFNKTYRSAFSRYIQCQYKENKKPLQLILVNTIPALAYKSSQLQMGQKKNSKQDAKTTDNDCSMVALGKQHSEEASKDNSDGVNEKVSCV
row,Compound,IC50
1,"CC(C)COC(=O)Nc1ccc(OCCN2CCCC2)c(-c2c(Br)cnn2C)c1 [Compound 23, [3-(4-Bromo-2-methyl-2H-pyrazol-3-yl)-4-(2-pyrrolidin-1-yl-ethoxy)-phenyl]-carbamic acid isobutyl ester]",1.1 nM
2,"Cn1nccc1-c1cc(NC(=O)NCc2ccc(Cl)cc2)ccc1OCCN1CCCCC1 [Compound 45, 1-(4-Chloro-benzyl)-3-[3-(2-methyl-2H-pyrazol-3-yl)-4-(2-piperidin-1-yl-ethoxy)-phenyl]-urea]",10.2 nM
3,"Cn1nccc1-c1cc(NC(=O)Cc2ccc(F)cc2)ccc1OCCN1CCOCC1 [Compound 160, 2-(4-Fluoro-phenyl)-N-[3-(2-methyl-2H-pyrazol-3-yl)-4-(2-morpholin-4-yl-ethoxy)-phenyl]-acetamide]",13.7 nM
